In patent US20250188088A1, “COMPOUND AND USE THEREOF” (ONQUALITY PHARMACEUTICALS CHINA LTD., priority 2022, published 2025):
Converted amounts (≈) assume the structure as drawn. Where two headings read alike, the source gives them in different places.

Assays:
[1] = Log D measurement (n-octanol/PBS shake, LC-MS/MS); format: physicochemical; settings: pH 7.4, read-out: LogD7.4 (Oct/buff)
Experimental: Two replicates of test compounds (DMSO stock solution 10 mM, 2 μL/well) and QCs (DMSO 10 mM, 2 μL/well) were transferred from the storage tube to a 96-well cluster tube. Add buffer-saturated n-octanol ([…]) and n-octanol-saturated PBS (149 μL/well) to each well; vortex mix the cluster tube for 1 minute, mix by shaking on a plate shaker at 880 rpm for one hour, and then centrifuge at 4000 rpm for 10 minutes. Remove the cover pad, accurately measure a certain amount of n-octanol layer samples (4 μL/well) into a 96-well plate containing n-octanol internal standard diluent (796 μL/well); accurately measure a certain amount of buffer salt layer samples (30 μL/well) into a 96-well plate containing buffer internal standard diluent (570 μL/well); the dilution factor of the sample can be adjusted according to different properties of the sample. Samples were analyzed using a triple quadrupole mass spectrometer. The processed sample solution was analyzed by the fast isocratic elution and small column retention method, the concentration correction was carried out by dilution factor and internal standard, and the ratio of the corrected peak area was used to calculate the final result (Log D/Log P value).

[2] = Thermodynamic solubility assay (PBS pH 6.5; isopropyl myristate); format: physicochemical; settings: thermodynamic from solid
Experimental: Thermodynamic Solubility Assay
Weigh not less than 2 mg of the sample powder into a Whatman Mini-UniPrep vial. If it is required to test the thermodynamic solubility of samples in multiple buffers, a separate vial is needed for each test; add 450 μL of buffer to each Whatman Mini-UniPrep vial, respectively; after that, install the piston cap of Whatman Mini-UniPrep and press it above the liquid level, so that the filter is in contact with the buffer during shaking; shake the solubility sample by vortexing for 1 minute.
Inject 3 UV standard solutions from low to high concentrations into the HPLC, then inject the diluent and supernatant of the test compound, with two replicates of test sample; and integrate the UV peaks. Simulate a standard curve and calculate the thermodynamic solubility of the sample.

[3] = test system: rash caused by small molecule EGFR inhibitors; experiment: Prevention of rash caused by small molecule EGFR inhibitors, topical ointment, rat model; format: in vivo, SD rats
Description: An Experiment to Verify the Prevention of Rash Caused by Small Molecule EGFR Inhibitors with Topical Administration of Compounds of the Present Application on a Rat Animal Model A rat animal model was established. After daily gavage of a small molecule EGFR inhibitor to female SD rats for […], the rats developed extensive rashes on their backs several days later (picture shown in FIG. 1). […] Similar to humans, rats developed skin rashes on their faces and bodies after oral administration of small molecule EGFR inhibitors. Both of them had the same etiology and very similar symptoms. Therefore, rats are a proper animal model for mimicking EGFR inhibitor-induced rash. After the SD rats were fed and adapted for one week (about 200 g), the rats were divided into 10 rats per group. The hair on the back of rats was gently removed with an electric razor one day before the experiment, and then an intragastric administration test was carried out. EGFR inhibitors were dissolved in a sterile aqueous solution, and diluted with PBS buffer; the amount of each gavage was not more than 2 mL, and the dosage was shown in Table 1. The experiment comprised the administration group and the control group. After intragastric administration, apply the ointment (type and concentration are shown in Table 1) of the compound used in the present application to the backs (about 3 cm*3 cm) of rats in the administration group; apply blank matrix ointment (about 0.5 g) to the backs (about 3 cm*3 cm) of rats in the control group; fix the rats with a fixed cylinder for about 4 hours after drug application, release the rats after 4 hours, wipe off the residual drug at the application site with clean water, and put them back into the cage. The frequency of intragastric administration of EGFR inhibitors is shown in Table 1, but the compounds of the present application and blank matrix ointment are applied only once a day. The intragastric administration and application test were repeated daily until an obvious rash appeared in the control group. […] Table 1 lists the animal experiment combination of various small molecule EGFR inhibitors and the compound ointment of the present application, as well as the corresponding experiment results (wherein, the value in the control rate column=the number of rats whose rash is milder in the administration group than that in the control group/the total number of rats in the administration group×100%).

[4] = test system: rash caused by monoclonal EGFR inhibitors; experiment: Prevention of rash caused by monoclonal EGFR inhibitors, topical ointment, rat model; format: in vivo, SD rats
Summary of the method: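 SD rats (~200 g), backs shaved, 10 per group, given EGFR monoclonal antibody i.v. (tail vein) twice weekly, with compound ointment or blank matrix ointment applied daily to a ~3×3 cm dorsal area, held 4 h then wiped off, until control rash appeared. Control rate = % of treated rats with milder rash than controls.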

[5] = aqueous buffer, PBS buffer pH 6.5, about 25° C., read-out: Thermodynamic Solubility pH = 6.5
[6] = oil or lipid, isopropyl myristate as vehicle, about 25° C., read-out: Thermodynamic Solubility in Isopropyl Myristate

| logD [1] | solubility thermodynamic at 24 h [2, 5] [µg/mL] | solubility thermodynamic at 24 h [2, 6] [µg/mL] | Compound | also measured |
| --- | --- | --- | --- | --- |
| 1.87 | 170 (≈ 341 µM) | 1590 (≈ 3200 µM) | CCC(C)C(=O)OCCN(C)C(=O)n1ccc2c(N(C)[C@H]3CN(C(=O)CC#N)CC[C@H]3C)ncnc21 (stereo partly drawn) [Compound A11] |  |
| 1.45 | 645 (≈ 1210 µM) | 878 (≈ 1650 µM) | C[C@@H]1CCN(C(=O)CC#N)C[C@@H]1N(C)c1ncnc2c1ccn2C(=O)N(C)CCOC(=O)C1CC(F)(F)C1 [Compound A1] |  |
| 0.56 | 2940 (≈ 5750 µM) | 208 (≈ 407 µM) | C[C@@H]1CCN(C(=O)CC#N)C[C@@H]1N(C)c1ncnc2c1ccn2C(=O)N(C)CCOC(=O)C1CCOC1 (stereo partly drawn) [Compound A8] |  |
| 2.07 | 233 (≈ 456 µM) | 1830 (≈ 3580 µM) | CCC(CC)C(=O)OCCN(C)C(=O)n1ccc2c(N(C)[C@H]3CN(C(=O)CC#N)CC[C@H]3C)ncnc21 [Compound A10] |  |
| 2.72 | 16 (≈ 30.4 µM) | 339 (≈ 646 µM) | CCCC(CC)C(=O)OCCN(C)C(=O)n1ccc2c(N(C)[C@H]3CN(C(=O)CC#N)CC[C@H]3C)ncnc21 (stereo partly drawn) [Compound A12] | Control Rate ([3]; Afatinib 40 mg/kg once a day, ointment 1.0 wt% once a day, 14 days): 60%; Control Rate ([3]; Afatinib 40 mg/kg once a day, ointment 3.0 wt% once a day, 14 days): 75%; Control Rate ([3]; Afatinib 40 mg/kg once a day, ointment 5.0 wt% once a day, 14 days): 90%; Control Rate ([3]; EAI045 80 mg/kg once a day, ointment 1.0 wt% once a day, 11 days): 60%; Control Rate ([3]; EAI045 80 mg/kg once a day, ointment 10.0 wt% once a day, 11 days): 70%; Control Rate ([3]; Erlotinib 70 mg/kg once a day, ointment 0.3 wt% once a day, 14 days): 20%; Control Rate ([3]; Erlotinib 70 mg/kg once a day, ointment 3.0 wt% once a day, 14 days): 50%; Control Rate ([3]; Osimertinib 60 mg/kg twice a day, ointment 0.3 wt% once a day, 10 days): 50%; Control Rate ([3]; Osimertinib 60 mg/kg twice a day, ointment 5.0 wt% once a day, 10 days): 80%; Control Rate ([4]; Cetuximab 100 mg/kg twice a week via tail vein, ointment 0.3 wt% once a day, 10 days): 20%; Control Rate ([4]; Cetuximab 100 mg/kg twice a week via tail vein, ointment 3.0 wt% once a day, 10 days): 70%; Control Rate ([4]; Cetuximab 100 mg/kg twice a week via tail vein, ointment 10.0 wt% once a day, 10 days): 85%; Control Rate ([4]; Panitumumab 10 mg/kg twice a week via tail vein, ointment 1.0 wt% once a day, 14 days): 50%; Control Rate ([4]; Panitumumab 10 mg/kg twice a week via tail vein, ointment 5.0 wt% once a day, 14 days): 60%; Control Rate ([4]; Panitumumab 10 mg/kg twice a week via tail vein, ointment 10.0 wt% once a day, 14 days): 60% |
| 2.35 | 486 (≈ 981 µM) | 1250 (≈ 2520 µM) | C[C@@H]1CCN(C(=O)CC#N)C[C@@H]1N(C)c1ncnc2c1ccn2C(=O)N(C)CCOC(=O)C1CCC1 [Compound A4] |  |
| 1.69 | 234 (≈ 457 µM) | 1380 (≈ 2690 µM) | CCCCCC(=O)OCCN(C)C(=O)n1ccc2c(N(C)[C@H]3CN(C(=O)CC#N)CC[C@H]3C)ncnc21 [Compound A9] |  |
| 2.05 | 147 (≈ 289 µM) | 1200 (≈ 2350 µM) | C[C@@H]1CCN(C(=O)CC#N)C[C@@H]1N(C)c1ncnc2c1ccn2C(=O)N(C)CCOC(=O)CC1CCC1 [Compound A5] |  |
| 2.1 | 304 (≈ 597 µM) | 2340 (≈ 4580 µM) | C[C@@H]1CCN(C(=O)CC#N)C[C@@H]1N(C)c1ncnc2c1ccn2C(=O)N(C)CCOC(=O)C1(C)CCC1 [Compound A3] |  |
| 1.86 | 240 (≈ 429 µM) | 1020 (≈ 1820 µM) | C[C@@H]1CCN(C(=O)CC#N)C[C@@H]1N(C)c1ncnc2c1ccn2C(=O)N(C)CCOC(=O)C1CCC(F)(F)CC1 [Compound A2] |  |
| 1.95 | 300 (≈ 589 µM) | 1530 (≈ 2990 µM) | C[C@@H]1CCN(C(=O)CC#N)C[C@@H]1N(C)c1ncnc2c1ccn2C(=O)N(C)CCOC(=O)C1CCCC1 [Compound A6] |  |
| 0.97 | 2430 (≈ 5180 µM) | 779 (≈ 1660 µM) | CCC(=O)OCCN(C)C(=O)n1ccc2c(N(C)[C@H]3CN(C(=O)CC#N)CC[C@H]3C)ncnc21 [Compound A20] |  |
